In DBAASP:
Values after ≈ are worked out from the molar mass of the structure shown. Values joined by “and” are separate entries in the source; they are usually repeats but may differ in a detail not shown here. Identical values can stand only once. Blank lines part the entries; values can stand above or below the molecule they belong to.

Experiments:
Test in all cases: ≥ marks a high value that may be exact or a test limit, other limits are often not marked, values filed in µg/mL are converted to µM
[1] = test system: Staphylococcus aureus KCTC 3881
[2] = test system: Micrococcus luteus ATCC 4698
[3] = test system: Staphylococcus epidermidis ATCC 12228
[4] = test system: Pseudomonas aeruginosa ATCC 9027
[5] = test system: Klebsiella pneumoniae ATCC 10031
[6] = test system: Shigella dysenteriae ATCC 9752
[7] = test system: Proteus mirabilis ATCC 25933
[8] = test system: Escherichia coli KCTC 2433
[9] = test system: Candida albicans ATCC 36232
[10] = test system: Bacillus subtilis ATCC 6633
[11] = test system: Pseudomonas aeruginosa ATCC 14502
[12] = test system: Micrococcus luteus ATCC 49732
[13] = test system: Escherichia coli ATCC 11775
[14] = test system: Staphylococcus aureus ATCC 6538
[15] = test system: Staphylococcus aureus ATCC 12600
Escherichia coli SBS 363 = test system: Escherichia coli SBS 363
[16] = test system: Pseudomonas aeruginosa 3552
[17] = test system: Pseudomonas aeruginosa CCARM 2095
[18] = test system: Enterococcus faecium CCARM 5029
[19] = test system: Staphylococcus aureus CCARM 3572
[20] = test system: Pseudomonas aeruginosa CCARM 2092
[21] = test system: Bacillus subtilis KCCM 11495
[22] = test system: Escherichia coli KCCM 11569
[23] = test system: Enterococcus faecium CCARM 5028
Klebsiella pneumoniae = test system: Klebsiella pneumoniae
[24] = test system: Salmonella enterica subsp. arizonae
Staphylococcus aureus = test system: Staphylococcus aureus
Aspergillus fumigatus = test system: Aspergillus fumigatus
Bibersteinia trehalosi = test system: Bibersteinia trehalosi
[25] = test system: Mannheimia haemolytica Serovar 1
[26] = test system: Corynebacterium pseudotuberculosis ATCC 19410
Pasteurella multocida = test system: Pasteurella multocida
[27] = test system: Mannheimia haemolytica Serovar 2
[28] = test system: Mannheimia haemolytica Serovar 6
[29] = test system: Pseudomonas aeruginosa PAO1
[30] = test system: Escherichia coli CGSC 4908
[31] = test system: Pseudomonas aeruginosa Z61
Candida albicans C627 = test system: Candida albicans C627
[32] = test system: Aeromonas salmonicida A449
[33] = test system: Salmonella enterica serovar typhimurium MS7953s
[34] = test system: Aeromonas salmonicida 99-1
Escherichia coli DC2 = test system: Escherichia coli DC2
[35] = test system: Pseudomonas aeruginosa K799
[36] = test system: Staphylococcus aureus C623
[37] = test system: Staphylococcus epidermidis C621
[38] = test system: Salmonella enterica subsp. enterica serovar Typhimurium ATCC 14028s
Escherichia coli UB1005 = test system: Escherichia coli UB1005
[39] = test system: Aeromonas salmonicida 97-4

SMILES: CC[C@H](C)[C@H](NC(=O)[C@H](C)NC(=O)[C@H](CO)NC(=O)[C@@H](NC(=O)[C@H](C)NC(=O)[C@H](CC(N)=O)NC(=O)[C@@H](NC(=O)[C@H](C)NC(=O)[C@H](Cc1cnc[nH]1)NC(=O)[C@@H]1CCCN1C(=O)[C@@H](NC(=O)[C@H](CC(C)C)NC(=O)[C@H](CO)NC(=O)[C@H](CC(C)C)NC(=O)[C@@H](N)Cc1ccccc1)[C@@H](C)CC)[C@@H](C)CC)C(C)C)C(=O)N[C@@H](C)C(=O)N[C@@H](CCCCN)C(=O)N[C@@H](Cc1cnc[nH]1)C(=O)N[C@@H](Cc1ccccc1)C(N)=O [FLSLIPHAINAVSAIAKHF]
MIC [11]: 6 µM (≈ 12.3 µg/mL) | MIC [12]: 1.8 µM (≈ 3.69 µg/mL) | MIC [13]: 7.2 µM (≈ 14.7 µg/mL) | MIC [14]: 6 µM (≈ 12.3 µg/mL) | MIC [15]: 3.6 µM (≈ 7.37 µg/mL) | MIC (Escherichia coli SBS 363): 6 µM (≈ 12.3 µg/mL)

SMILES: CC[C@H](C)[C@H](NC(=O)CNC(=O)[C@@H](NC(=O)[C@H](Cc1cnc[nH]1)NC(=O)[C@H](CCCCN)NC(=O)[C@H](CCCCN)NC(=O)[C@H](CC(C)C)NC(=O)[C@H](CCCCN)NC(=O)[C@H](Cc1c[nH]c2ccccc12)NC(=O)[C@@H](N)CCCCN)[C@@H](C)CC)C(=O)NCC(=O)N[C@@H](CCCCN)C(=O)N[C@@H](Cc1cnc[nH]1)C(=O)N[C@@H](Cc1ccccc1)C(=O)N[C@@H](CC(C)C)C(=O)N[C@@H](CO)C(=O)N[C@@H](C)C(=O)N[C@@H](CCCCN)C(=O)N[C@@H](CCCCN)C(=O)N[C@@H](Cc1ccccc1)C(N)=O [KWKLKKHIGIGKHFLSAKKF]
MIC [16]: 8 µM and 4 µM

SMILES: CC[C@H](C)[C@H](NC(=O)[C@H](CO)NC(=O)[C@H](CCCCN)NC(=O)[C@@H](NC(=O)[C@@H](NC(=O)[C@H](CC(=O)O)NC(=O)[C@H](CCC(=O)O)NC(=O)[C@@H](NC(=O)[C@H](CO)NC(=O)[C@@H](N)CCCNC(=N)N)[C@@H](C)O)[C@@H](C)CC)[C@@H](C)CC)C(=O)N[C@@H](CO)C(=O)NCC(=O)NCC(=O)NCC(=O)N[C@@H](Cc1ccccc1)C(=O)N[C@@H](CC(C)C)C(=O)N[C@@H](CC(N)=O)C(=O)N[C@@H](C)C(=O)N[C@@H](CCSC)C(=O)N[C@@H](CC(N)=O)C(=O)N[C@@H](C)C(C)=O [RSTEDIIKSISGGGFLNAMNA]
MIC [30]: 29.3 µM (≈ 63.9 µg/mL) | MIC [31]: 29.3 µM (≈ 63.9 µg/mL) | MIC (Candida albicans C627): 29.3 µM (≈ 63.9 µg/mL) | MIC [32]: 29.3 µM (≈ 63.9 µg/mL) | MIC [33]: 29.3 µM (≈ 63.9 µg/mL) | MIC [34]: 29.3 µM (≈ 63.9 µg/mL) | MIC (Escherichia coli DC2): 29.3 µM (≈ 63.9 µg/mL) | MIC [35]: 29.3 µM (≈ 63.9 µg/mL) | MIC [36]: 29.3 µM (≈ 63.9 µg/mL) | MIC [37]: 29.3 µM (≈ 63.9 µg/mL) | MIC [38]: 29.3 µM (≈ 63.9 µg/mL) | MIC (Escherichia coli UB1005): 29.3 µM (≈ 63.9 µg/mL) | MIC [39]: 29.3 µM (≈ 63.9 µg/mL)

Continued, in another order:

MIC [1]: 5.49 µM (≈ 12.5 µg/mL) | MIC [2]: 2.74 µM (≈ 6.24 µg/mL) | MIC [3]: 21.9 µM (≈ 50 µg/mL) | MIC [4]: > 43.9 µM | MIC [5]: ≥ 43.9 µM | MIC [6]: ≥ 43.9 µM | MIC [7]: ≥ 43.9 µM | MIC [8]: ≥ 43.9 µM | MIC [9]: 21.9 µM (≈ 50 µg/mL) | MIC [10]: 21.9 µM (≈ 50 µg/mL)
SMILES: CC(C)C[C@H](NC(=O)[C@H](CC(C)C)NC(=O)[C@H](CC(C)C)NC(=O)[C@@H]1CCCN1C(=O)[C@H](CC(C)C)NC(=O)[C@@H](N)Cc1ccccc1)C(=O)N[C@@H](C)C(=O)NCC(=O)N[C@@H](CC(C)C)C(=O)N1CCC[C@H]1C(=O)N[C@@H](CC(C)C)C(=O)N[C@@H](CCCCN)C(=O)N[C@@H](CC(C)C)C(=O)N[C@H]1CSSC[C@@H](C(=O)O)NC(=O)[C@H](CCCCN)NC(=O)[C@H](CCCCN)NC(=O)[C@H](Cc2ccccc2)NC(=O)[C@H](CC(C)C)NC(=O)[C@H](Cc2ccccc2)NC1=O [FLPLLLAGLPLKLCFLFKKC]

MIC [17]: 2.77 µM (≈ 5.65 µg/mL) | MIC [18]: 0.693 µM and 1.39 µM | MIC [19]: 5.54 µM (≈ 11.3 µg/mL) | MIC [20]: 1.39 µM (≈ 2.83 µg/mL) | MIC [21]: 0.49 µM (≈ 1 µg/mL) | MIC [22]: 1.39 µM (≈ 2.83 µg/mL) | MIC [23]: 0.693 µM and 1.39 µM
SMILES: CC(C)C[C@H](NC(=O)CNC(=O)[C@H](CCCCN)NC(=O)[C@H](CCCCN)NC(=O)[C@H](CC(C)C)NC(=O)[C@H](CC(C)C)NC(=O)[C@H](C)NC(=O)[C@H](CC(N)=O)NC(=O)[C@H](CC(C)C)NC(=O)[C@H](Cc1c[nH]c2ccccc12)NC(=O)[C@@H](N)CCCCN)C(=O)N[C@@H](CC(N)=O)C(=O)N[C@@H](CS)C(=O)N[C@@H](C)C(=O)N[C@@H](CCCCN)C(=O)NCC(=O)N[C@H](C(=O)N[C@@H](CC(C)C)C(=O)N[C@@H](C)C(N)=O)C(C)C [KWLNALLKKGLNCAKGVLA]

MIC (Klebsiella pneumoniae): 0.818 µM (≈ 1.7 µg/mL) | MIC [24]: 2.41 µM (≈ 5 µg/mL) | MIC (Staphylococcus aureus): 4.81 µM (≈ 10 µg/mL) | MIC (Aspergillus fumigatus): 4 µM (≈ 8.3 µg/mL) | MIC (Bibersteinia trehalosi): 3.61 µM (≈ 7.5 µg/mL) | MIC [26]: 9.63 µM (≈ 20 µg/mL) | MIC (Pasteurella multocida): 0.626 µM (≈ 1.3 µg/mL) | MIC [29]: 2.02 µM (≈ 4.2 µg/mL)
SMILES: CC[C@H](C)[C@H](NC(=O)[C@H](CCCN=C(N)N)NC(=O)[C@H](CCCN=C(N)N)NC(=O)[C@@H](NC(=O)[C@@H](N)CC(N)=O)[C@@H](C)CC)C(=O)N[C@H](C(=O)N[C@@H](CCCN=C(N)N)C(=O)N[C@@H](CCCCN)C(=O)N[C@H](C(=O)N[C@H](C(=O)N[C@@H](Cc1cnc[nH]1)C(=O)N[C@H](C(=O)N[C@H](C(=O)N[C@@H](CCCCN)C(=O)N[C@@H](CCCCN)C(=O)N[C@@H](Cc1ccc(O)cc1)C(=O)O)[C@@H](C)CC)[C@@H](C)CC)[C@@H](C)CC)[C@@H](C)CC)[C@@H](C)CC [NIRRIIRKIIHIIKKY]
MIC [25]: 0.722 µM (≈ 1.5 µg/mL) | MIC [27]: 1.59 µM (≈ 3.3 µg/mL) | MIC [28]: 1.59 µM (≈ 3.3 µg/mL)
